Results as given in ChEMBL document CHEMBL5537211, “Synthesis and Antifungal Activity of Stereoisomers of Mefloquine Analogs” (2024).
Values after ≈ are worked out from the molar mass of the structure shown.

Experiments:
Format in all cases: functional
Cryptococcus neoformans [1] = test: Antifungal activity against Cryptococcus neoformans
Candida albicans [2] = test: Antifungal activity against Candida albicans
Candida albicans [3] = test: Antifungal activity against Candida albicans SC5314 assessed as fungal growth inhibition incubated for 24 hrs by CLSI protocol based microbroth dilution assay
Cryptococcus neoformans [4] = test: Antifungal activity against Cryptococcus neoformans H99 assessed as fungal growth inhibition incubated for 72 hrs by CLSI protocol based microbroth dilution assay
Candida albicans [5] = test: Antifungal activity against Candida albicans by CLSI M27-A3 protocol based absorbance assay
Cryptococcus neoformans [6] = test: Antifungal activity against Cryptococcus neoformans by CLSI M27-A3 protocol based absorbance assay
[7] = Selectivity ratio of MIC for antifungal activity against Candida albicans SC5314 to MIC for antifungal activity against Cryptococcus neoformans H99

SMILES	MIC (Cryptococcus neoformans [1]) [µg/mL]	MIC (Candida albicans [2]) [µg/mL]	MIC (Candida albicans [3]) [µg/mL]	MIC (Cryptococcus neoformans [4]) [µg/mL]	MIC (Candida albicans [5]) [µg/mL]	MIC (Cryptococcus neoformans [6]) [µg/mL]	Selectivity ratio [7]
OC(c1cc(C2CC3CCC2CC3)nc2c(Cl)cc(Cl)cc12)C1CCCCN1 (racemic)	0.4 (≈ 0.954 µM)	1.5 (≈ 3.58 µM)	–	–	–	–	–
O[C@@H](c1cc(-c2ccc(Cl)cc2)nc2c(Cl)cccc12)[C@@H]1CCCCN1	–	–	8 (≈ 20.7 µM)	2 (≈ 5.16 µM)	–	–	–
O[C@H](c1cc(-c2ccc(Cl)cc2)nc2c(Cl)cccc12)[C@H]1CCCCN1	–	–	8 (≈ 20.7 µM)	2 (≈ 5.16 µM)	–	–	–
OC(c1cc(-c2ccc(Cl)cc2)nc2c(Cl)cccc12)C1CCCCN1 (racemic)	–	–	8 (≈ 20.7 µM)	2 (≈ 5.16 µM)	4 (≈ 10.3 µM)	1 (≈ 2.58 µM)	–
O[C@H](c1cc(-c2ccc(Cl)cc2)nc2c(Cl)cccc12)[C@@H]1CCCCN1	–	–	4 (≈ 10.3 µM)	1 (≈ 2.58 µM)	–	–	–
O[C@@H](c1cc(-c2ccc(Cl)cc2)nc2c(Cl)cccc12)[C@H]1CCCCN1	–	–	4 (≈ 10.3 µM)	1 (≈ 2.58 µM)	–	–	–
Cl.O[C@@H](c1cc(-c2ccc(Cl)cc2)nc2ccccc12)[C@@H]1CCCCN1 (racemic)	–	–	64	16	–	–	–
O[C@@H](c1cc(C(F)(F)F)nc2c(C(F)(F)F)cccc12)[C@H]1CCCCN1 (racemic) [(S,R)-MEFLOQUINE]	32 (≈ 84.6 µM)	> 128	128 (≈ 338 µM)	16 (≈ 42.3 µM)	–	–	8
Cl.O[C@@H](c1cc(-c2ccc(Cl)cc2)nc2ccccc12)[C@H]1CCCCN1 (racemic)	–	–	16	8	–	–	–
OC(Cn1cncn1)(Cn1cncn1)c1ccc(F)cc1F [FLUCONAZOLE]	–	–	≤ 0.125	2 (≈ 6.53 µM)	–	–	–
